Measurements published in patent US20250197374A1, “WEE1 DEGRADING COMPOUNDS AND USES THEREOF” (BRISTOL-MYERS SQUIBB COMPANY, priority 2023, published 2025).

Legend:
Assay type in all cases: cell-based
MDA-MB-231 cells = experiment: MDA-MB-231 cell proliferation assay (Cell-Titer-Glo, 120 hr); conditions: for EC50: Homo sapiens, MDA-MB-231, 120 h, read-out: MDA-MB 231 Cell Prolif. 120 hr EC50; for MDA-MB 231 Cell Prolif. 120 hr YMin (%): minimal percent of DMSO control observed
Method in brief: (§1)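 Growth inhibition was read as CellTiter-Glo luminescence after 120 h at 37 °C in RPMI/10% FBS, with 400 MKN45 or 800 MDA-MB-231 cells seeded per well. Compounds were tested in 10-point half-log series starting at 1 or 10 uM (0.1% DMSO), in triplicate for MKN45 and duplicate for MDA-MB-231. EC50 values are four-parameter fits to %DMSO control, and Ymin-obs is the minimal observed %DMSO.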

WEE1 = target: T1, WEE1 (Homo sapiens, UniProt P30291+Q96SW2); experiment: WEE1-ePL degradation assay (293T-LentiX, InCELL Hunter luminescence, 4 hr); conditions: for DC50: LentiX-HEK293T cells expressing WEE1-ePL, 4 hr incubation, read-out: 293T-LentiX WEE1-ePL Degradation 4 hr EC50; for 293T-LentiX WEE1-ePL Degradation 4 hr YMin (%): lower limit of fit, % of DMSO control signal remaining
T1 construct: C-terminal ePL-tagged (DiscoverX, Fremont, CA) full-length WEE1 expression construct; expressed in transfected cells; host or cells: LentiX-HEK293T (Invitrogen), lentivirally transduced; the cells also over-express GSPT1-GN
T1 sequence (P30291 whole entry): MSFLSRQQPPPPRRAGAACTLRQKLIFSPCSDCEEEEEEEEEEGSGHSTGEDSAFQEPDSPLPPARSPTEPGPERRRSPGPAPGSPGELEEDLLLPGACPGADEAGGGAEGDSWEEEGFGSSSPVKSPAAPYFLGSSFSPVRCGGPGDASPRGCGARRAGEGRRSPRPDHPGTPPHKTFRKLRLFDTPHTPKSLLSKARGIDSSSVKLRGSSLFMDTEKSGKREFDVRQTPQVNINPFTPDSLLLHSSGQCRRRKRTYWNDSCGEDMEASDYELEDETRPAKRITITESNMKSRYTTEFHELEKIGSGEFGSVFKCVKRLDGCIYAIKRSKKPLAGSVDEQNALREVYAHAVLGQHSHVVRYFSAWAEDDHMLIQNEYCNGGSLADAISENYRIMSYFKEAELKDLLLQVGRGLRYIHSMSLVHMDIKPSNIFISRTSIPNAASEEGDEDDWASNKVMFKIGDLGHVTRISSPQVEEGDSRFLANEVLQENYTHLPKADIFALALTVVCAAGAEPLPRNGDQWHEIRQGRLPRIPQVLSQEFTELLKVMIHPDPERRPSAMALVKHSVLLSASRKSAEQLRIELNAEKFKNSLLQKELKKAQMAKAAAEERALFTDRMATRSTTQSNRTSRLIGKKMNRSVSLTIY
T1 sequence (Q96SW2 whole entry): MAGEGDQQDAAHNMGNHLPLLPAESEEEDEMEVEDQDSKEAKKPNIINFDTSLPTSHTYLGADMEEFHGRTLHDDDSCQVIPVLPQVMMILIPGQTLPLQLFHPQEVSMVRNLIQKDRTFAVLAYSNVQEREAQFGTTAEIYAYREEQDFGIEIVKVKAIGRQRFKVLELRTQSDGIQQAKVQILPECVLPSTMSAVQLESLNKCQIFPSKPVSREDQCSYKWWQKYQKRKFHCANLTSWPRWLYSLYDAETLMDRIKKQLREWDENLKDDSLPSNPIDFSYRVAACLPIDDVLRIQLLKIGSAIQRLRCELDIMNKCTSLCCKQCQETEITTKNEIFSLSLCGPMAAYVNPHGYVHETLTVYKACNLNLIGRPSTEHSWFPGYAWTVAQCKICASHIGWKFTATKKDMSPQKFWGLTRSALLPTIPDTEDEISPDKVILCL
T1 sequence (Q16531 whole entry partner): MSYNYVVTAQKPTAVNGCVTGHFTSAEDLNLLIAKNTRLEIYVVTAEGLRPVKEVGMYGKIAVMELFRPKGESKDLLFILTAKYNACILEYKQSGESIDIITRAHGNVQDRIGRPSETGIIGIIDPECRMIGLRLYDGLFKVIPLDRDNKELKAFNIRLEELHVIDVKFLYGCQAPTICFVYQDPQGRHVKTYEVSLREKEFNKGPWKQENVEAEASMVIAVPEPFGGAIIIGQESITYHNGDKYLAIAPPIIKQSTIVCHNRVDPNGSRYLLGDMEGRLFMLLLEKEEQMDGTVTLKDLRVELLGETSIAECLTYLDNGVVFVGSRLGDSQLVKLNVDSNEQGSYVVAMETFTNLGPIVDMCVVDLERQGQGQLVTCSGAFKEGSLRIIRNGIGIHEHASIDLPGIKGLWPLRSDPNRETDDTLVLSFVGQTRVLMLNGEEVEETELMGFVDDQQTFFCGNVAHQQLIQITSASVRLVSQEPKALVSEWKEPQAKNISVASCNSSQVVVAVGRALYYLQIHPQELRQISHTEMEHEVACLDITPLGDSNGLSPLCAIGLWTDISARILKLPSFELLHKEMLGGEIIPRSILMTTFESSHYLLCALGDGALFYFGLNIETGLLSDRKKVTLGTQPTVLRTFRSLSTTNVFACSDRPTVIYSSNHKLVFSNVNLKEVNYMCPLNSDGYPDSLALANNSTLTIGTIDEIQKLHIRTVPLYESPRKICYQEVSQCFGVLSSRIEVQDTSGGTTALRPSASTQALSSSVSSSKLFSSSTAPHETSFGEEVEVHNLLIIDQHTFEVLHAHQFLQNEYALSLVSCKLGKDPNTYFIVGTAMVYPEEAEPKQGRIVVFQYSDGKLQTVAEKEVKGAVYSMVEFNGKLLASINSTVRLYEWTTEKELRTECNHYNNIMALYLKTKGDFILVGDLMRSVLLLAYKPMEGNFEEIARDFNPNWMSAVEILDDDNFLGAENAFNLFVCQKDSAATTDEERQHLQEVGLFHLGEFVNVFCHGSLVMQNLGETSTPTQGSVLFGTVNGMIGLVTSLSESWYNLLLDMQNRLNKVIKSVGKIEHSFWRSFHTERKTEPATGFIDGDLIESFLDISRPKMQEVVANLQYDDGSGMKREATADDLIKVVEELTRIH
Method in brief: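 EC50 comes from a four-parameter logistic fit of ePL luminescence (InCELL Hunter), with DMSO control defining Ymax. Compounds ran as 10-point 3-fold dilutions from 1 or 10 µM for 4 h at 37 °C. Cells were HEK293T-LentiX with ePL-tagged full-length WEE1 and over-expressed Cereblon-resistant GSPT1-GN.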

MKN45 cells = experiment: MKN45 cell proliferation assay (Cell-Titer-Glo, 120 hr); conditions: for EC50: Homo sapiens, MKN-45, 120 h, read-out: MKN45 Cell Prolif. 120 hr EC50; for MKN45 Cell Prolif. 120 hr YMin (%): minimal percent of DMSO control observed
Method in brief: as §1

Row | SMILES | EC50 (MDA-MB-231 cells) [nM] | DC50 (WEE1) [nM] | 293T-LentiX WEE1-ePL Degradation 4 hr YMin (%) (WEE1) | EC50 (MKN45 cells) [nM] | MDA-MB 231 Cell Prolif. 120 hr YMin (%) (MDA-MB-231 cells) | MKN45 Cell Prolif. 120 hr YMin (%) (MKN45 cells)
1 | COC[C@@H]1CN(Cc2cc(F)c3nc(N4CCC45CCOCC5)ncc3c2)C[C@H]1Oc1ccc2c(c1)CN([C@H]1CCC(=O)NC1=O)C2=O [Example 73, (3S)-3-(5-{[(3S,4S)-1-[(8-fluoro-2-{7-oxa-1-azaspiro[3.5]nonan-1-yl}quinazolin-6-yl)methyl]-4-(methoxymethyl)pyrrolidin-3-yl]oxy}-1-oxo-2,3-dihydro-1H-isoindol-2-yl)piperidine-2,6-dione] | 41 | 1 | 28.9 | 3 | 34.0 | 9.4
2 | COC[C@@H]1CN(Cc2cc(F)c3nc(N4CCC45COC5)ncc3c2)C[C@H]1Oc1ccc2c(c1)CN([C@H]1CCC(=O)NC1=O)C2=O [Example 74, (3S)-3-(5-{[(3S,4S)-1-[(8-fluoro-2-{6-oxa-1-azaspiro[3.3]heptan-1-yl}quinazolin-6-yl)methyl]-4-(methoxymethyl)pyrrolidin-3-yl]oxy}-1-oxo-2,3-dihydro-1H-isoindol-2-yl)piperidine-2,6-dione] | 15 | 2 | 31.4 | 3 | 55.8 | 10.6
3 | COC[C@@H]1CN(Cc2cc(F)c3nc(N4CCOC5(COC5)C4)ncc3c2)C[C@H]1Oc1ccc2c(c1)CN([C@H]1CCC(=O)NC1=O)C2=O [Example 80, (3S)-3-(5-{[(3S,4S)-1-[(2-{2,5-dioxa-8-azaspiro[3.5]nonan-8-yl}-8-fluoroquinazolin-6-yl)methyl]-4-(methoxymethyl)pyrrolidin-3-yl]oxy}-1-oxo-2,3-dihydro-1H-isoindol-2-yl)piperidine-2,6-dione] | 42 | 2 | 29.7 | 2 | 23.5 | 10.3
4 | COC[C@@H]1CN(Cc2ccc3nc(C4CCN(C(C)=O)C(C)(C)C4)ncc3c2)C[C@H]1Oc1ccc2c(c1)CN([C@H]1CCC(=O)NC1=O)C2=O (stereo partly drawn) [Example 82, (3S)-3-(5-{[(3S,4S)-1-{[2-(1-acetyl-2,2-dimethylpiperidin-4-yl)quinazolin-6-yl]methyl}-4-(methoxymethyl)pyrrolidin-3-yl]oxy}-1-oxo-2,3-dihydro-1H-isoindol-2-yl)piperidine-2,6-dione] | 26 | 2 | 27.5 | 2 | 17.9 | 9.0

The remaining compounds from weak to strong by EC50 (MDA-MB-231 cells), led by results:

Row | EC50 (MDA-MB-231 cells) [nM] | DC50 (WEE1) [nM] | 293T-LentiX WEE1-ePL Degradation 4 hr YMin (%) (WEE1) | EC50 (MKN45 cells) [nM] | SMILES | MDA-MB 231 Cell Prolif. 120 hr YMin (%) (MDA-MB-231 cells) | MKN45 Cell Prolif. 120 hr YMin (%) (MKN45 cells)
5 | 31 | 1 | 28.7 | 1 | COC[C@@H]1CN(Cc2cc(F)c3nc(N4CCOC5(CC5)C4)ncc3c2)C[C@H]1Oc1ccc2c(c1)CN([C@H]1CCC(=O)NC1=O)C2=O [Example 79, (3S)-3-(5-{[(3S,4S)-1-[(8-fluoro-2-{4-oxa-7-azaspiro[2.5]octan-7-yl}quinazolin-6-yl)methyl]-4-(methoxymethyl)pyrrolidin-3-yl]oxy}-1-oxo-2,3-dihydro-1H-isoindol-2-yl)piperidine-2,6-dione] | 17.9 | 9.9
6 | 11 |  | 31.2 | 1 | COC[C@@H]1CN(Cc2cc(F)c3nc(N4CCC45COC5)ccc3c2)C[C@H]1Oc1ccc2c(c1)CN([C@H]1CCC(=O)NC1=O)C2=O [Example 75, (3S)-3-(5-{[(3S,4S)-1-[(8-fluoro-2-{6-oxa-1-azaspiro [3.3]heptan-1-yl}quinolin-6-yl)methyl]-4-(methoxymethyl)pyrrolidin-3-yl]oxy}-1-oxo-2,3-dihydro-1H-isoindol-2-yl)piperidine-2,6-dione] | 56.6 | 10.1
